Counter-ions that a name gives are not always drawn.

Experiment [1] has as its system IL-17A levels in human peripheral blood. In words: tissue or blood. The class given is cell-based. Particulars: 72 h, read-out: Human Whole blood IL-17A (nM).
Experiment [2] deals with T1, human RORgt nuclear receptor (RORgT ligand binding domain protein) (Homo sapiens, UniProt P51449).
T1 construct: purchased Proteros Biostructures GmbH
T1 sequence (P51449 with tags, fused parts or gaps): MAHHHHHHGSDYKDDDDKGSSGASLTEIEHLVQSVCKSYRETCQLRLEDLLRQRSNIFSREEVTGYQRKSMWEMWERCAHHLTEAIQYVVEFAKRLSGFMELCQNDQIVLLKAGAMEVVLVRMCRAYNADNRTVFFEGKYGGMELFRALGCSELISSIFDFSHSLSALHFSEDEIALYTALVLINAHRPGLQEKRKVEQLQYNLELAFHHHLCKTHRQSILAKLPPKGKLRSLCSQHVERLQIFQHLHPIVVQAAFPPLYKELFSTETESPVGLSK
In words: ROR-gamma binding assay (Scintillation Proximity Assay, displacement of [3H]-25-hydroxycholesterol). The conditions noted are these: EC50, SPA, 15 nM [3H]-25-Hydroxycholesterol, RORgT LBD 12 nM. An outline of the steps:
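SPA competition of compound against 15 nM [3H]-25-hydroxycholesterol for His/FLAG-tagged human RORγt LBD (12 nM) on His-tag PVT beads, in 50 mM HEPES pH 7.4, 150 mM NaCl, 5 mM MgCl2, 0.1% BSA, 0.5% DMSO. 30 min preincubation, then ≥4 h at room temperature in darkness; EC50 by four-parameter fit.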
For orientation: Scintillation proximity formats need no separation of bound from free tracer.

The test system of experiment [3] is IL-17A in Human peripheral mononuclear cells. Put plainly: Human PBMC IL-17A assay. Format: cell-based. Particulars: 72 h, EC50, antiCD3/antiCD28-coated beads, 3 days, alpha-LISA. An outline of the steps: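 Cryopreserved human PBMC (130,000/well) stimulated with anti-CD3/anti-CD28-coated beads (1 cell per bead) in RPMI-1640 with 10% bovine calf serum, compounds at 0.1% DMSO, for 3 days. Supernatant IL-17A measured by AlphaLISA, viability by PrestoBlue; EC50 from 4-parameter non-linear regression.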
A general note: Bead proximity is the source of the signal in Alpha formats.

As to `Cc1c(CN2CCN(C(=O)OC(C)C)[C@@H](C)C2)cc(Cl)cc1Nc1nnc([C@H](C)O)o1` [Example 63, isopropyl (2S)-4-[[5-chloro-3-[[5-[(1S)-1-hydroxyethyl]-1,3,4-oxadiazol-2-yl]amino]-2-methyl-phenyl]methyl]-2-methyl-piperazine-1-carboxylate], the figures for the EC50 in experiment [1], in experiment [2] and in experiment [3] were 187 nM, 0.0348 µM and 0.0621 µM, respectively.
The like results for `CCC(F)(F)C(=O)N1CCN(Cc2cc(Cl)cc(Nc3nnc(COC)o3)c2C)C[C@@H]1C` [Example 8, 1-[(2S)-4-[[5-chloro-3-[[5-(methoxymethyl)-1,3,4-oxadiazol-2-yl]amino]-2-methyl-phenyl]methyl]-2-methyl-piperazin-1-yl]-2,2-difluoro-butan-1-one] were, in that order, 497 nM, 0.069 µM and 0.251 µM.
Take `COCc1nnc(Nc2cc(Cl)cc(CN3CCN(C(=O)C4CCCC4)[C@@H](C)C3)c2C)o1` [Example 13, [(2S)-4-[[5-chloro-3-[[5-(methoxymethyl)-1,3,4-oxadiazol-2-yl]amino]-2-methyl-phenyl]methyl]-2-methyl-piperazin-1-yl]-cyclopentyl-methanone]: the values for the EC50 in experiment [1], in experiment [2] and in experiment [3] were 112 nM, 0.0147 µM and 0.0489 µM, respectively.
The like results for `Cc1cc(CN2CCN(C(=O)OC(C)(C)C)[C@@H](C)C2)c(C)c(Nc2nnc(-c3ccnn3C)o2)c1` [Example 31, tert-butyl (2S)-4-[[2,5-dimethyl-3-[[5-(2-methylpyrazol-3-yl)-1,3,4-oxadiazol-2-yl]amino]phenyl]methyl]-2-methyl-piperazine-1-carboxylate] were, in that order, 231 nM, 0.0324 µM and 0.0635 µM.
The like results for `Cc1cc(CN2CCN(C(=O)C3CCC(F)(F)C3)[C@@H](C)C2)c(C)c(Nc2nnc([C@@H](C)O)o2)c1` (stereo partly drawn) [Example 25, (3,3-difluorocyclopentyl)-[(2S)-4-[[3-[[5-[(1R)-1-hydroxyethyl]-1,3,4-oxadiazol-2-yl]amino]-2,5-dimethyl-phenyl]methyl]-2-methyl-piperazin-1-yl]methanone] were, in that order, 191 nM, 0.159 µM and 0.258 µM.
The like results for `Cc1cc(CN2CCN(C(=O)OC(C)C)[C@@H](C)C2)c(C)c(Nc2nnc([C@H]3C[C@@H](O)C3)o2)c1` [Example 37, isopropyl (2S)-4-[[3-[[5-(3-hydroxycyclobutyl)-1,3,4-oxadiazol-2-yl]amino]-2,5-dimethyl-phenyl]methyl]-2-methyl-piperazine-1-carboxylate] were, in that order, 426 nM, 0.0408 µM and 0.0437 µM.
Regarding `Cc1cc(CN2CCN(C(=O)OC(C)C)[C@@H](C)C2)c(C)c(Nc2nnc(CC#N)o2)c1` [Example 42, isopropyl (2S)-4-[[3-[[5-(cyanomethyl)-1,3,4-oxadiazol-2-yl]amino]-2,5-dimethyl-phenyl]methyl]-2-methyl-piperazine-1-carboxylate], the EC50 was 359 nM in experiment [1], 0.048 µM in experiment [2] and 0.0342 µM in experiment [3].
Regarding `Cc1cc(CN2CCN(C(=O)OC(C)C)[C@@H](C)C2)c(C)c(Nc2nnc([C@@H]3CCCN3S(C)(=O)=O)o2)c1` [Example 65, isopropyl (2S)-4-[[2,5-dimethyl-3-[[5-[(2S)-1-methylsulfonylpyrrolidin-2-yl]-1,3,4-oxadiazol-2-yl]amino]phenyl]methyl]-2-methyl-piperazine-1-carboxylate], the EC50 in experiment [1] was 107 nM; in experiment [2] it was 0.0479 µM; in experiment [3], 0.0587 µM.
Consider `Cc1cc(CN2CCN(C(=O)OC(C)C)[C@@H](C)C2)c(C)c(Nc2nnc([C@H](C)N)o2)c1` [Example 49, isopropyl (2S)-4-[[3-[[5-[(1S)-1-aminoethyl]-1,3,4-oxadiazol-2-yl]amino]-2,5-dimethyl-phenyl]methyl]-2-methyl-piperazine-1-carboxylate], for which the EC50 amounted to 275 nM in experiment [1], 0.0905 µM in experiment [2] and 0.218 µM in experiment [3].
For `Cc1c(CN2CCN(C(=O)OC(C)C)[C@@H](C)C2)cc(C(F)F)cc1Nc1nnc([C@H](C)O)o1` [Example 43, isopropyl (2S)-4-[[5-(difluoromethyl)-3-[[5-[(1S)-1-hydroxyethyl]-1,3,4-oxadiazol-2-yl]amino]-2-methyl-phenyl]methyl]-2-methyl-piperazine-1-carboxylate], in that order: 332 nM, 0.0539 µM and 0.0635 µM.
For `Cc1cc(CN2CCN(C(=O)OC(C)(C)C)[C@@H](C)C2)c(C)c(Nc2nnc(-c3cnsn3)o2)c1` [Example 33, tert-butyl (2S)-4-[[2,5-dimethyl-3-[[5-(1,2,5-thiadiazol-3-yl)-1,3,4-oxadiazol-2-yl]amino]phenyl]methyl]-2-methyl-piperazine-1-carboxylate], in that order: 126 nM, 0.0233 µM and 0.0452 µM.
The like results for `Cc1cc(CN2CCN(C(=O)CC3CCC3)[C@@H](C)C2)c(C)c(Nc2nnc([C@@H](C)O)o2)c1` [Example 26, 2-cyclobutyl-1-[(2S)-4-[[3-[[5-[(1R)-1-hydroxyethyl]-1,3,4-oxadiazol-2-yl]amino]-2,5-dimethyl-phenyl]methyl]-2-methyl-piperazin-1-yl]ethanone] were, in that order, 119 nM, 0.0582 µM and 0.0913 µM.
For the compound `Cc1cc(CN2CCN(C(=O)C3CC3)[C@@H](C)C2)c(C)c(Nc2nnc(CC#N)o2)c1` [Example 16, 2-[5-[3-[[(3S)-4-(cyclopropanecarbonyl)-3-methyl-piperazin-1-yl]methyl]-2,5-dimethyl-anilino]-1,3,4-oxadiazol-2-yl]acetonitrile], the values for the EC50 in experiment [1], in experiment [2] and in experiment [3] were 206 nM, 0.223 µM and 0.237 µM, respectively.
The like results for `Cc1cc(CN2CCN(C(=O)C3CCCC3)[C@@H](C)C2)c(C)c(Nc2nnc([C@H]3NCC[C@H]3O)o2)c1` [Example 78, cyclopentyl-[(2S)-4-[[3-[[5-[(2S,3R)-3-hydroxypyrrolidin-2-yl]-1,3,4-oxadiazol-2-yl]amino]-2,5-dimethyl-phenyl]methyl]-2-methyl-piperazin-1-yl]methanone] were, in that order, 157 nM, 0.0725 µM and 0.0959 µM.
The like results for `Cc1cc(CN2CCN(C(=O)OC(C)C)[C@@H](C)C2)c(C)c(Nc2nnc([C@@H]3COCCN3)o2)c1` [Example 55, isopropyl (2S)-4-[[2,5-dimethyl-3-[[5-[(3S)-morpholin-3-yl]-1,3,4-oxadiazol-2-yl]amino]phenyl]methyl]-2-methyl-piperazine-1-carboxylate dihydrochloride] were, in that order, 36.8 nM, 0.039 µM and 0.0623 µM.
For `Cc1cc(CN2CCN(C(=O)C3CCC3)[C@@H](C)C2)c(C)c(Nc2nnc([C@@H](C)O)o2)c1` [Example 19, cyclobutyl-[(2S)-4-[[3-[[5-[(1R)-1-hydroxyethyl]-1,3,4-oxadiazol-2-yl]amino]-2,5-dimethyl-phenyl]methyl]-2-methyl-piperazin-1-yl]methanone], in that order: 216 nM, 0.0923 µM and 0.117 µM.
Regarding `Cc1cc(CN2CCN(C(=O)O[C@H](C)C(F)(F)F)[C@@H](C)C2)c(C)c(Nc2nnc([C@@H](O)CO)o2)c1` [Example 75, [(1R)-2,2,2-trifluoro-1-methyl-ethyl] (2S)-4-[[3-[[5-[(1S)-1,2-dihydroxyethyl]-1,3,4-oxadiazol-2-yl]amino]-2,5-dimethyl-phenyl]methyl]-2-methyl-piperazine-1-carboxylate], the EC50 was 158 nM in experiment [1], 0.0324 µM in experiment [2] and 0.0529 µM in experiment [3].
For `Cc1cc(CN2CCN(C(=O)OC(C)C)[C@@H](C)C2)c(C)c(Nc2nnc([C@@H]3CNC(=O)C3)o2)c1` [Example 83, isopropyl (2S)-4-[[2,5-dimethyl-3-[[5-[(3S)-5-oxopyrrolidin-3-yl]-1,3,4-oxadiazol-2-yl]amino]phenyl]methyl]-2-methyl-piperazine-1-carboxylate], in that order: 240 nM, 0.067 µM and 0.123 µM.
For `Cc1cc(CN2CCN(C(=O)OC(C)(C)C)[C@@H](C)C2)c(C)c(Nc2nnc(-c3cnnn3C)o2)c1` [Example 30, tert-butyl (2S)-4-[[2,5-dimethyl-3-[[5-(3-methyltriazol-4-yl)-1,3,4-oxadiazol-2-yl]amino]phenyl]methyl]-2-methyl-piperazine-1-carboxylate], in that order: 239 nM, 0.0312 µM and 0.0936 µM.
